Assays:
[1] = tested on: MCF7 (breast tumor) cells; assay: anti-proliferative assay (MTT, 48 h); format: cell-based, human; conditions: MCF7, 0.01 to 100 μM
Experimental: (§1) Example 6 was carried out to determine the biological activity of the following samples: (S)-perillyl alcohol, (S)-AP, (R)-AP, (S)-NAP, and (R)-NAP on human tumor lineages. (S)-perillyl alcohol was tested in combination with the samples of sodium acids and salts, because it is a substance which is considered to have some established clinical efficacy.
(§2) Samples (R)-AP, (S)-AP, (R)-NAP, (S)-NAP and perillyl alcohol (POH) were received and solubilized in DMSO or saline solution (NaCl 0.9%) and conserved at −20° C. until the day of the experiment, when they were immediately diluted before use, in a cell culture medium, DMEM, enriched with 10% fetal bovine serum, […] penicillin, and 0.1 mg/ml streptomycin, and 0.05 mg/ml gentamicin (DMEM complete medium). The experiments were carried out according to the Standard Operational Procedure of the Laboratory of Molecular Pharmacology FARMO1003 version 00, which are summarized below.
(§3) K562 (leukemia), LUCENA (multi-drug resistant leukemia), SKMEL28 (melanoma) and MCF7 (breast tumor) cells were cultivated on a DEM complete culture medium, and kept in log growth phase. Twenty-four hours before the treatment with the samples, 100 μl of the cell suspension (5×10^4 cells/ml) were added to wells of 96-well plates and kept in the oven at 5% CO2 atmosphere, at 37° C.
(§4) The treatment for each of the five samples was carried out in response dosage (0.01 to 100 μM; 5 spots), each concentration in triplicate.
(§5) After 48 hours, thiazolyl blue was added (MTT; SIGMA code M5655) and the plate was kept in the oven with CO2 for 4 hours. After the incubation time, the supernatant was aspirated and formazan crystals, formed by the cellular activity, were solubilized with isopropyl alcohol and, after full solubilization, the optical density determination was carried out in a microplate reader at 570 nm (VictorX5; Perkin Elmer USA).

K562 (leukemia) cells = assay: anti-proliferative assay (MTT, 48 h); format: cell-based, human; conditions: K562, 0.01 to 100 μM
Experimental: as §1, §2, §3, §4, §5

SKMEL28 (melanoma) cells = assay: anti-proliferative assay (MTT, 48 h); format: cell-based, human; conditions: SKMEL, 0.01 to 100 μM
Experimental: as §1, §2, §3, §4, §5

[2] = tested on: Lucena (multi-drug resistant leukemia) cells; assay: anti-proliferative assay (MTT, 48 h); format: cell-based, human; conditions: 0.01 to 100 μM
Experimental: as §1, §2, §3, §4, §5

[3] = tested on: human colon adenocarcinoma (HCT-116); assay: MTT viability test, (S)-NAP 24 h; format: cell-based; conditions: HCT-116, NAP dosage 1.0-5.0 mM
Experimental: (§6) The effect of (S)-NAP on the viability of human colon adenocarcinoma cells with increasing degrees of malignancy was first evaluated. Caco2, HT-29, HCT-116 and a normal control cell MDCK, a […] kidney cell. Proliferation assays
(§7) (i) Cell cultures: Lineages of human colon adenocarcinoma cells with decreasing malignancy levels, HCT 116, HT-29 and Caco-2, were used. As a control of the epithelial cell model, a normal cell line of drainage epithelium (IEC-6) was used. These cells were cultured according to the ATCC specifications and maintained in a DMEM medium in an oven, with 5% CO2, at 37° C. until reaching semiconfluence.
(§8) (ii) Treatments: Initially, concentrations of sodium perylate (1.0, 1.8, 2.6, 3.4, 4.2 and 5.0 mM) were tested to determine the IC50 of the drug. Monolayers of semiconfluent cells were serum-depleted for 24 hours before treatment with (S)-NAP and during the treatment for 24 h.
(§9) (iii) Viability test: The lineages were plated in 96-well flat-bottom plates with DMEM culture medium containing the different (S)-NAP concentrations described above. Cell incubation with (S)-NAP was conducted for 24 h, at 37° C., upon which, the plates were incubated for 2 h with MTT [3-(4,5-dimethylthiazol-2-yl)-2,5diphenyltetrazolium bromide] 2.5 mg/ml, at a final concentration of 250 μg/ml. The plates were centrifuged at 1200 RPM, at 4° C., for 5 minutes, poured to remove the supernatant, since the crystals had deposited inside the cells. Formazan crystals were dissolved into […] of DMSO and homogenized manually and through the device. Absorbances were determined at 538 nm in a plate reader (Spectra Max 190). Controls of 100% viability, with no drug addition, and of 0% viability using formaldehyde were carried out simultaneously with the experiment.

[4] = tested on: human colon adenocarcinoma (HT-29); assay: MTT viability test, (S)-NAP 24 h; format: cell-based; conditions: HT-29, NAP dosage 1.5-5.0 mM, concentration limited by NAP solubility
Experimental: as §6, §7, §8, §9

[5] = tested on: human colon adenocarcinoma (Caco-2); assay: MTT viability test, (S)-NAP 24 h; format: cell-based; conditions: Caco-2, NAP dosage 1.5-5.0 mM
Experimental: as §6, §7, §8, §9

[6] = solubility in an aqueous medium; format: physicochemical; conditions: relative to POH and PA

Structure (SMILES)	inhibition (in words) [1]	inhibition (in words) (SKMEL28 (melanoma) cells)	also measured
C=C(C)[C@@H]1CC=C(CO)CC1 [POH, perillyl alcohol]	no inhibition making IC50 calculation necessary		
C=C(C)C1CC=C(C(=O)[O-])CC1.[Na+] (stereo in doubt) [(R)-NAP, sodium perylate]		no inhibition making IC50 calculation necessary	IC50 (K562 (leukemia) cells): 1.24 µM; IC50 [2]: 0.013 µM
C=C(C)[C@H]1CC=C(C(=O)O)CC1 [(R)-PA, perillic acid]	no inhibition making IC50 calculation necessary		
C=C(C)[C@@H]1CC=C(C(=O)[O-])CC1.[Na+] [(S)-NAP, sodium perylate]	no inhibition making IC50 calculation necessary		IC50 [3]: > 3400 µM; IC50 [4]: > 5000 µM; Result (viability) [5]: Refractory
C=C(C)[C@@H]1CC=C(C(=O)O)CC1 [(S)-PA, perillic acid, reference compound]	no inhibition making IC50 calculation necessary	no inhibition making IC50 calculation necessary	
C=C(C)C1CC=C(C(=O)[O-])CC1.[Na+] (stereo not drawn) [NAP, sodium perylate]			solubility in an aqueous medium compared with POH and PA [6]: higher
